{
  "source": "ChEMBL document CHEMBL3864173",
  "about": "“Design and Synthesis of Novel Macrocyclic Mer Tyrosine Kinase Inhibitors” (ACS Med Chem Lett, 2016)",
  "assay": "Solubility of the compound at pH 7.4",
  "assay_type": "physicochemical",
  "details": "buffer",
  "data": [
    {"smiles": "CCCCNc1ncc2c(-c3ccc(CN4CCN(C)CC4)cc3)cn([C@H]3CC[C@H](O)CC3)c2n1.Cl", "values": [
      {"measurement": "solubility", "result": 47, "unit": "mg/mL"}
    ]}
  ]
}
